{
  "source": "patent US20230321012A1",
  "about": "(priority 2021, published 2023)",
  "key": {"[1]": {"experiment": "Water solubility, bioavailability and Biopharmaceutics Classification System class", "format": "physicochemical", "conditions": "oral", "source_text": "Interim data for the pharmacokinetic (PK) behavior of both agents in human subjects has been generated."}, "[2]": {"experiment": "Clinical safety and tolerability, dose-limiting toxicities (NCT03536728)", "format": "in vivo", "source_text": "Clinical Trial Outline. […] All solid tumor types are eligible for the trial. […] DFMO was delivered orally twice daily in gel capsules.\nThese DLTs involved vomiting, diarrhea and nausea, and inferred a potential dual drug targeting of the gastrointestinal (GI) tract in these patients. One patient experienced severe dehydration, requiring hospitalization. A similar observation was made in dogs in Aminex's 28-day toxicological testing. […] The clinical observations and the data obtained in dog studies, together, support the hypothesis that combined oral drug dosing levels and DFMO targeting of the GI tract are causing the intolerance.\nIn cohorts before Part 2, Cohort 4, 14 adults were treated at 1,200 mg or higher of AMXT 1501 daily, either once daily or BID, with no DLTs. A total of 18 patients were treated at 800 mg AMXT 1501 or higher daily with no DLTs. These patients included a couple of adult patients where Cmax values above 1,000 ng/mL AMXT 1501 plasma levels were observed, again with no DLTs observed."}},
  "note": "“Also recorded” adds a separate entry of the source.",
  "data": [
    {"smiles": "CCCCCCCCCCCCCCCC(=O)NCCCC[C@@H](N)C(=O)NCCCNCCCCNCCCN", "note": "[AMXT 1501 dicaprate]", "values": [
      {"measurement": "bioavailability", "setting": "[1]", "result": "low bioavailability"},
      {"measurement": "clinical tolerability", "setting": "[2]; oral 1,200 mg AMXT 1501 dicaprate alone, once daily or split BID", "result": "well tolerated clinically; also recorded: well-tolerated clinically"},
      {"measurement": "GI adverse effects on changing from once daily to twice daily (BID) delivery", "setting": "[2]; patients, similar dose levels", "result": "greatly reduced; also recorded: substantially minimized"}
    ]}
  ]
}
